Earlier results, collected in patent US6685965B1, “PROCESS FOR STABILIZING LEVOGYRE ASCORBIC ACID (LAA), A STABLE AQUEOUS LAA COMPOSITION, A PROCESS FOR PREPARING A STABLE TOPICAL SOLUTION, AN EMULSION, A VITAMIN PRODUCT, AND A METHOD FOR COSMETIC, PHARMACEUTICAL OR NUTRITIONAL TREATMENT” (Industria E Comercio de Cosmeticos Natura LTDA., priority 1997, dated 2004).

Experiments:
[1] = test system: human fibroblasts; details: human fibroblasts in vitro, in the presence of LAA
[2] = test system: glucosaminoglycines, components of the extracellular matrix of the dermis; details: in the presence of LAA

O=C1OC(C(O)CO)C(O)=C1O (stereo not shown) [LAA, levogyre ascorbic acid]
efficiency of mRNA in the translation of the polypeptidic chains of collagen [1]: about 2 times
increase in the synthesis of mRNA (collagens of type I and type III) [1]: 2 to 3 times
increase in deposition of glucosaminoglycines in the extracellular matrix [2]: 50%
increase in synthesis of glucosaminoglycines [2]: 30 to 90%
